# Laboratory results as given in PMC8073005, “Antifungal Activity and DNA Topoisomerase Inhibition of Hydrolysable Tannins from Punica granatum L” (International Journal of Molecular Sciences, 2021).
# Where “and” joins values, the source holds several entries; their conditions need not be identical. Equal values may be shown once. Read-outs that look alike come from different tables or passages of the source.
# What was measured:
# [1] = test system: Candida albicans ATCC 10321; experiment: MIC, broth microdilution (human pathogens); format: cell-based; settings: ATCC10321; Candida albicans ATCC 10321; SDB, 30 °C, 48 h; read-out: Minimum inhibitory concentration (MIC)
# [2] = test system: Candida albicans SC 5314; experiment: MIC, broth microdilution (human pathogens); format: cell-based; settings: SC5314; Candida albicans SC 5314; SDB, 30 °C, 48 h; read-out: Minimum inhibitory concentration (MIC)
# [3] = test system: Candida albicans 1; experiment: MIC, broth microdilution (human pathogens); format: cell-based; settings: Candida albicans 1; SDB, 30 °C, 48 h; read-out: Minimum inhibitory concentration (MIC)
# [4] = test system: Candida albicans 2; experiment: MIC, broth microdilution (human pathogens); format: cell-based; settings: Candida albicans 2; SDB, 30 °C, 48 h; read-out: Minimum inhibitory concentration (MIC)
# [5] = test system: Candida albicans H; experiment: MIC, broth microdilution (human pathogens); format: cell-based; settings: Candida albicans H; SDB, 30 °C, 48 h; read-out: Minimum inhibitory concentration (MIC)
# [6] = test system: Candida albicans 40; experiment: MIC, broth microdilution (human pathogens); format: cell-based; settings: Candida albicans 40; SDB, 30 °C, 48 h; read-out: Minimum inhibitory concentration (MIC)
# [7] = test system: Candida albicans 41; experiment: MIC, broth microdilution (human pathogens); format: cell-based; settings: Candida albicans 41; SDB, 30 °C, 48 h; read-out: Minimum inhibitory concentration (MIC)
# [8] = test system: Candida albicans 44; experiment: MIC, broth microdilution (human pathogens); format: cell-based; settings: Candida albicans 44; SDB, 30 °C, 48 h; read-out: Minimum inhibitory concentration (MIC)
# [9] = test system: Candida parapsilosis; experiment: MIC, broth microdilution (human pathogens); format: cell-based; settings: Lodderomyces parapsilosis; Candida parapsilosis; SDB, 30 °C, 48 h; read-out: Minimum inhibitory concentration (MIC)
# [10] = test system: Candida parapsilosis 7; experiment: MIC, broth microdilution (human pathogens); format: cell-based; settings: Lodderomyces parapsilosis; Candida parapsilosis 7; SDB, 30 °C, 48 h; read-out: Minimum inhibitory concentration (MIC)
# [11] = test system: Candida zeylanoides 33; experiment: MIC, broth microdilution (human pathogens); format: cell-based; settings: Dujonia zeylanoides; Candida zeylanoides 33; SDB, 30 °C, 48 h; read-out: Minimum inhibitory concentration (MIC)
# [12] = test system: Saccharomyces cerevisiae 42; experiment: MIC, broth microdilution (human pathogens); format: cell-based; settings: Saccharomyces cerevisiae 42; SDB, 30 °C, 48 h; read-out: Minimum inhibitory concentration (MIC)
# [13] = test system: Aspergillus brasiliensis ATCC 16404; experiment: MIC, broth microdilution (human pathogens); format: cell-based; settings: ATCC16404; Aspergillus brasiliensis ATCC 16404; SDB, 30 °C, 48 h; read-out: Minimum inhibitory concentration (MIC)
# [14] = test system: Aspergillus candidus 3; experiment: MIC, broth microdilution (human pathogens); format: cell-based; settings: Aspergillus candidus 3; SDB, 30 °C, 48 h; read-out: Minimum inhibitory concentration (MIC)
# [15] = test system: Aspergillus candidus 25; experiment: MIC, broth microdilution (human pathogens); format: cell-based; settings: Aspergillus candidus 25; SDB, 30 °C, 48 h; read-out: Minimum inhibitory concentration (MIC)
# [16] = test system: Cryptococcus neoformans B 3501; experiment: MIC, broth microdilution (human pathogens); format: cell-based; settings: B3501; Cryptococcus neoformans B 3501; SDB, 30 °C, 48 h; read-out: Minimum inhibitory concentration (MIC)
# [17] = test system: Cryptococcus neoformans ATCC 11240; experiment: MIC, broth microdilution (human pathogens); format: cell-based; settings: ATCC11240; Cryptococcus neoformans ATCC 11240; SDB, 30 °C, 48 h; read-out: Minimum inhibitory concentration (MIC)
# [18] = test system: Cryptococcus 67; experiment: MIC, broth microdilution (human pathogens); format: cell-based; settings: Cryptococcus 67; SDB, 30 °C, 48 h; read-out: Minimum inhibitory concentration (MIC)
# [19] = test system: Cryptococcus var. grubii H99 serotype A; experiment: MIC, broth microdilution (human pathogens); format: cell-based; settings: Cryptococcus var. grubii H99 serotype A; SDB, 30 °C, 48 h; read-out: Minimum inhibitory concentration (MIC)
# [20] = test system: Candida strains; experiment: Agar Disk Diffusion Assay, Candida strains; format: cell-based; settings: for share of Candida strains with inhibition zone from 21 to 30 mm: 25 μg; for zone of inhibition at 25 µg/disc: positive controls, for the stated share of Candida strains
# [21] = biological target: T1, topoisomerase I from Candida albicans (Candida albicans, UniProt Q00313); experiment: Topoisomerase I supercoiled DNA relaxation inhibition; format: biochemical
# T1 sequence (Q00313 1-778): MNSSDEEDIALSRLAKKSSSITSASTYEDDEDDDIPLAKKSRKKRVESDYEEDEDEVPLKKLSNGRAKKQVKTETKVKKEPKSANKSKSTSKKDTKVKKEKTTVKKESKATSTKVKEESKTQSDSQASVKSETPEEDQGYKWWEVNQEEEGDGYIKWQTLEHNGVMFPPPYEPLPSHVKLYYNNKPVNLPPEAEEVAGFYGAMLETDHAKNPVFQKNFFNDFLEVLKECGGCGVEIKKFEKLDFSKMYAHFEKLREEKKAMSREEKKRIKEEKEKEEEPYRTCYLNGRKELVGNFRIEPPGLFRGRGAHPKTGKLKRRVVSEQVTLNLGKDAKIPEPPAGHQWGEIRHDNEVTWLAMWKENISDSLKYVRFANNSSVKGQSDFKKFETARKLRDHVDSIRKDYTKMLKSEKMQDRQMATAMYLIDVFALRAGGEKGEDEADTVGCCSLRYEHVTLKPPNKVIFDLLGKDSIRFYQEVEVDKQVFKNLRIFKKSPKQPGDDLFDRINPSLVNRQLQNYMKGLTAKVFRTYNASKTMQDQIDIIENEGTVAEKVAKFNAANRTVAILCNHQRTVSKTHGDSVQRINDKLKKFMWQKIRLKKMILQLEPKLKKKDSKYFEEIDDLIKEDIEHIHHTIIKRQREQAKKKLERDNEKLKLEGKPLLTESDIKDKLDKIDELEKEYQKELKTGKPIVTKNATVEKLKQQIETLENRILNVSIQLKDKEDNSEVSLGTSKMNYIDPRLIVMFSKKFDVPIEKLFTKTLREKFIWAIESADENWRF
# [22] = test system: Alternaria alternata AL19; experiment: MIC, micro-spectrophotometric growth assay (phytopathogens); format: cell-based; settings: Alternaria alternata AL19; PDB, 24 °C, dark; imazalil at label dose; read-out: Minimum inhibitory concentration (MIC)
# [23] = test system: Botrytis cinerea B2; experiment: as above; format: cell-based; settings: Botrytis cinerea B2; PDB, 24 °C, dark; imazalil at label dose; read-out: Minimum inhibitory concentration (MIC)
# [24] = test system: Colletotrichum acutatum s.s. M146-2; experiment: as above; format: cell-based, Colletotrichum acutatum sensu stricto; settings: Colletotrichum acutatum s.s. M146-2, PDB, 24 °C, dark, imazalil at label dose, read-out: Minimum inhibitory concentration (MIC)
# [25] = test system: Coniella granati M0_C2; experiment: as above; format: cell-based; settings: Coniella granati M0_C2; PDB, 24 °C, dark; imazalil at label dose; read-out: Minimum inhibitory concentration (MIC)
# [26] = test system: other genera tested (other fungi strains); experiment: Agar Disk Diffusion Assay, other genera; format: cell-based; settings: 100 µg
# Protocol: The antifungal activity of pomegranate compounds was evaluated against 19 clinically isolated fungal strains, including nine belonging to Candida albicans species, two belonging to Aspergillus genus, one belonging to Cryptococcus genus, and one Saccharomyces cerevisiae. The C. albicans strains were isolated on CHROMID agar, Aspergillus and Cryptococcus genus were isolated on SDA-CAF and one Saccharomyces cerevisiae on SDA. All the isolates were confirmed by matrix-assisted laser desorption ionization (MALDI) time-of-flight mass spectrometry (TOF/MS). Strains from the American Type Culture Collection (ATCC) were included. All strains were maintained in SDB with 20% (w/v) glycerol at −80 °C until use and sub-cultured in SDA before each test.
# The preliminary determination of the antifungal activity of the target compounds (punicalagin, punicalin, ellagic acid, and gallic acid) from pomegranate was carried out by means of the agar disk diffusion assay, according to the standard procedure of the Clinical and Laboratory Standards Institute, with slight modifications. Plates containing SDA were uniformly spread with 100 μL of 10^3 conidia/mL of each strain suspension. […] Disks containing fluconazole (25 μg), amphotericin B (25 μg) and DMSO (20 μL) were used as the positive and the negative control, respectively. The antifungal activity of pomegranate compounds was evaluated by measuring the diameter of the clear inhibition zone formed right around the disks after 48 h incubation at 30 ± 1 °C. The experiment was carried out in triplicate.
MIC [1] [µM],MIC [2] [µM],MIC [3] [µM],MIC [4] [µM],MIC [5] [µM],MIC [6] [µM],MIC [7] [µM],MIC [8] [µM],MIC [9] [µM],MIC [10] [µM],MIC [11] [µM],MIC [12] [µM],MIC [13] [µM],MIC [14] [µM],MIC [15] [µM],MIC [16] [µM],MIC [17] [µM],MIC [18] [µM],MIC [19] [µM],SMILES,share of Candida strains with inhibition zone from 21 to 30 mm [20] [%],other results
0.1,0.1,2.2,4.3,4.3,0.3,0.3,2.2,0.1,0.3,0.1,1.1,0.1,0.3,0.3,0.1,0.1,0.1,0.1,"C[C@@H]1[C@H](O)[C@@H](C)/C=C/C=C/C=C/C=C/C=C/C=C/C=C/[C@H](O[C@@H]2O[C@H](C)[C@@H](O)[C@H](N)[C@@H]2O)C[C@@H]2O[C@](O)(C[C@@H](O)C[C@@H](O)[C@H](O)CC[C@@H](O)C[C@@H](O)CC(=O)O[C@H]1C)C[C@H](O)[C@H]2C(=O)O [Amphotericin B, amphotericin B, reference compound]",46,zone of inhibition at 25 µg/disc [20]: 21 to 30 mm
–,–,–,–,–,–,–,–,–,–,–,–,–,–,–,–,–,–,–,"CC[C@@]1(O)C(=O)OCc2c1cc1n(c2=O)Cc2cc3ccccc3nc2-1 [Camptothecin, camptothecin, reference compound]",–,IC50 [21]: 17.8 ± 0.7 µM
40.8,9.8,81.6,163,81.6,163,81.6,81.6,9.8,19.6,19.6,4.9,4.9,9.8,9.8,4.9,4.9,9.8,4.9,"OC(Cn1cncn1)(Cn1cncn1)c1ccc(F)cc1F [Fluconazole, fluconazole, reference compound]",73,zone of inhibition at 25 µg/disc [20]: 21 to 30 mm
–,–,–,–,–,–,–,–,–,–,–,–,–,–,–,–,–,–,–,"C=CCOC(Cn1ccnc1)c1ccc(Cl)cc1Cl (stereo not shown) [Imazalil, imazalil, reference compound]",–,MIC [22]: 0.3 µM; MIC [23]: 0.3 µM; MIC ([24]; S.S.M1462): 0.3 µM; MIC [25]: 0.3 µM

SMILES,MIC [1] [µM],MIC [2] [µM],MIC [3] [µM],MIC [4] [µM],MIC [5] [µM],MIC [6] [µM],MIC [7] [µM],MIC [8] [µM],MIC [9] [µM],MIC [10] [µM],MIC [11] [µM],MIC [12] [µM],MIC [13] [µM],MIC [14] [µM],MIC [15] [µM],MIC [16] [µM],MIC [17] [µM],MIC [18] [µM],MIC [19] [µM],share of Candida strains with inhibition zone from 21 to 30 mm [20] [%],other results
"O=C(O)c1cc(O)c(O)c(O)c1 [Gallic Acid, gallic acid]",294,294,294,294,588,588,294,294,294,588,588,588,8.8,17.6,17.6,4.4,4.4,8.8,4.4,–,MIC [22]: 587.8 µM and 588 µM; MIC [23]: 587.8 µM and 588 µM; MIC [24]: 587.8 µM; MIC ([24]; S.S.M1462): 588 µM; MIC [25]: 587.8 µM and 588 µM; share of Candida strains with inhibition zone from 11 to 20 mm ([20]; 100 µg): 73%; share of other fungi strains with inhibition zone from 11 to 20 mm [26]: 25%
